Assay [1] has as its system IL-1α production by cultured keratinocytes in the presence of feces. Put plainly: In Vitro Skin Test for Inhibition of IL-1α Production. The class given is cell-based, human. From the text: In an in vitro method to determine the efficacy of protease inhibitors in preventing the proinflammatory response of the skin to feces and fecal enzymes, human keratinocytes are obtained from epidermal tissue and cultured in serum free medium in plastic culture vessels containing a nylon mesh surface for a period of time until they are confluent. The mesh surface is then raised to the liquid air interface in order to promote differentiation and formation of multilayered organized layers analogous to those found in vivo, including a well defined stratum corneum barrier layer. Any cell culture system that promotes the growth and differentiation of keratinocytes, as described, may be employed. A commercially available cell culture system suitable for use in the invention is Epiderm (MatTek Corporation, Ashland, Mass.). Infant feces are collected in a manner to keep them free of urine contamination and diluted with phosphate-buffered saline (PBS) (pH 7.2-7.4.) The mixture is then mixed thoroughly to obtain a homogeneous suspension by homogenization or sonication. To assay for IL-1α production due to fecal enzyme activity, an aliquot of the homogenate is diluted with PBS and added to the surface of a control culture in a culture vessel. To assay for inhibition of IL-1α production due to protease activity, a predetermined quantity of a putative protease inhibitor is added to an otherwise identical diluted aliquot of the homogenate prior to adding it to the surface of a test culture. The cultures are allowed to incubate in a controlled atmosphere. At selected times, the control cultures and inhibitor-treated test cultures, and the underlying culture media are harvested. The culture media are assayed for the presence of IL-1α by known methods. For example, a suitable assay for IL-1α is an enzyme-linked immunoabsorbent method commercially available as Quantikine from R&D Systems, Minneapolis, Minn. The percent reduction in IL-1α production due to the presence of the protease inhibitor is calculated as follows: [formula] […]

In assay [2] the test system is purified chymotrypsin. Briefly: Purified Protease Method: purified chymotrypsin. Particulars: pH 7.6, 25° C., read-out: IC50 Values, Purified Proteases, Chymotrypsin. Format: biochemical. Here is the method:
Standard in vitro assays for enzyme activity and inhibition of enzyme activity are well known. The reagents used to conduct these tests are generally commercially available. In general, a simple system comprises an enzyme-specific substrate which, when hydrolyzed by the enzyme, produces a colored product. The activity of the enzyme is measured spectrophotometrically as the degree of development of the colored product (i.e. the rate of color change) over a predetermined time period.
For the Purified Protease assay and the Fecal Protease assays described below, the IC50 for each inhibitor tested is calculated according to the following equation: IC50=[I]/[(v/vi)−1] where: [I] is the inhibitor concentration tested, v is the rate of substrate cleavage in the absence of inhibitor and vi is the rate of substrate cleavage in the presence of inhibitor.
The following Purified Protease and Fecal Protease Methods are utilized to determine the inhibitory activity of putative protease inhibitors against a) purified proteases known to exist in feces; and b) the protease activity of feces itself; respectively. […] In the Methods, v and vi are measured as the change in absorbance (optical density, OD) at a given wavelength/time (e.g., minutes).
To test the efficacy of protease inhibitors against purified chymotrypsin, 0.05 mL of a putative inhibitor and 0.125 mL of 16 nM chymotrypsin (e.g., Sigma, St. Louis, Mo., catalogue no. C8946) in chymotrypsin buffer (50 mM TRIS, 10 mM CaCl2, pH 7.6) are added to a microcuvette. […] To this mixture, 0.025 mL of substrate (0.6 mM N-Succ-Ala-Ala-Pro-Phe-p-nitroanilide, e.g., Sigma cat. no. S7388) in chymotrypsin buffer is added to the cuvette, mixed, and the absorbance at 405 nm measured over 10 minutes at 25° C. The rate of substrate cleavage in the presence of inhibitor (vi) is the slope of a plot relating the absorbance at 405 nm versus time. […] The rate of substrate cleavage in the absence of inhibitor (v) is the slope of a plot relating the absorbance at 405 nm versus time. […]

Where a SMILES comes first, the peptide text is derived from it. [ ]: non-standard residue; d: D form. The star is where a group is joined. Sta = CC(C)C[C@H](N)[C@@H](O)CC(=O)O; Isovaleryl = CC(C)CC(=O)*

Regarding `N=C(N)c1ccc(OCCCCCCOc2ccc(C(=N)N)cc2)cc1` [Hexamidine diisethionate, hexamidine diisethionate], the “reduction of IL-1α production from skin cultures treated with feces” value is on record as 5% in assay [1] (inhibitor concentration 100 μM) and 51-88% in assay [1] (inhibitor concentration 1000 μM).
For the molecule `CC(C)C[C@H](NC(=O)[C@@H](NC(=O)N[C@@H](Cc1ccccc1)C(=O)O)[C@@H]1CCN=C(N)N1)C(=O)N[C@H](C=O)Cc1ccccc1` [Chymostatin], the IC50 in assay [2] was < 120 nM.
On to `CC(C)CC(=O)N[C@H](C(=O)N[C@H](C(=O)N[C@@H](CC(C)C)[C@@H](O)CC(=O)N[C@@H](C)C(=O)N[C@@H](CC(C)C)[C@@H](O)CC(=O)O)C(C)C)C(C)C` [Pepstatin A] (Isovaleryl-VV[Sta]A[Sta]-OH), for which, in assay [2], the IC50 was found to be 4900 nM.
Take Aprotinin: the IC50 in assay [2] came to 1000 nM.

B1: Soybean trypsin inhibitor: plant-derived trypsin inhibitor; serine protease inhibitor (protein, UniProt P01070 25-205, looked up)
Trypsin inhibitor A: DFVLDNEGNPLENGGTYYILSDITAFGGIRAAPTGNERCPLTVVQSRNELDKGIGTIISSPYRIRFIAEGHPLSLKFDSFAVIMLCVGIPTEWSVVEDLPEGPAVKIGENKDAMDGWFRLERVSDDEFNNYKLVFCPQQAEDDKCGDIGISIDHDDGTRRLVVSKNKPLVVQFQKLDKESL
Take B1: the “reduction of IL-1α production from skin cultures treated with feces” value in assay [1] (inhibitor concentration 10 μM) is reported as 56-75%.

Usually IC50 stands for the concentration needed to halve the response being measured.
